Starred links: 1 amine or outer side, 2 acyl side, 3 side chain; linkers in the order of their positions; H or OH if unused. Positions of bridges follow the written chain, without caps; N, C: chain ends. Non-standard residues stand in square brackets, D forms with d. Residues, ends and D or L forms follow the SMILES beside them. Trp(5-F) = N[C@@H](Cc1c[nH]c2ccc(F)cc12)C(=O)O; Phe(4-CH2NH2) = NCc1ccc(C[C@H](N)C(=O)O)cc1; X9 = CS[C@H]1C[C@@H](C(=O)[*:2])N([*:1])C1; X27 = O=C([C@@H](N[*:1])C1(O)CC1)[*:2]; mXylylene = c1cc(C[*:1])cc(C[*:2])c1; Adipoyl = O=C(CCCCC(=O)[*:2])[*:1]; Val(3-OH) = CC(C)(O)[C@H](N)C(=O)O; αMeP = C[C@@]1(C(=O)O)CCCN1; Orn = NCCC[C@H](N)C(=O)O; X2 = O=C(C[*:2])[*:1]; Mpa = O=C(O)CCS
How the values were obtained:
[1] = biological target: human PCSK9 / human LDLR EGFa domain interaction (Homo sapiens (Human), UniProt Q8NBP7); assay: TR-FRET assay of inhibition of the PCSK9-LDLR protein-protein interaction; assay type: binding; details: TR-FRET, 20 nM human PCSK9, 20 nM human LDLR EGFa domain, 2 hours room temperature; read-out: IC50
Outline: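 Compounds in dose-response are mixed with 20 nM human PCSK9 (avitag-biotinylated) and 20 nM his-tagged LDLR EGFa domain, plus 5 nM each streptavidin-Ulight and Eu-anti-6×His. After 2 h at room temperature in HEPES/NaCl/CaCl2 buffer with BSA and P20, TR-FRET is read and IC50 fitted (4-parameter).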

PCSK9 = PCSK9 (Homo sapiens (Human), UniProt Q8NBP7); assay: PCSK9 Alexa FRET Standard assay (displacement of AlexaFluor647 tagged cyclic peptide Reagent A); assay type: binding; details: PCSK9 Alexa FRET Standard assay, 0.5 nM PCSK9, 20 nM AF cyclic peptide Reagent A; read-out: IC50
Outline: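 TR-FRET displacement: 0.5 nM biotinylated PCSK9 with 1.25 nM Strep-Eu and 20 nM AlexaFluor-tagged cyclic peptide (final) in 50 mM HEPES pH 7.4, 0.15 M NaCl, 5 mM CaCl2, 0.01% BSA, 0.01% P20, ≥2 h at room temperature. IC50 from sigmoidal fit, converted to Ki via peptide KD; falling Eu counts flagged false positives.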

Chain of human PCSK9 / human LDLR EGFa domain interaction (Q8NBP7 153-692): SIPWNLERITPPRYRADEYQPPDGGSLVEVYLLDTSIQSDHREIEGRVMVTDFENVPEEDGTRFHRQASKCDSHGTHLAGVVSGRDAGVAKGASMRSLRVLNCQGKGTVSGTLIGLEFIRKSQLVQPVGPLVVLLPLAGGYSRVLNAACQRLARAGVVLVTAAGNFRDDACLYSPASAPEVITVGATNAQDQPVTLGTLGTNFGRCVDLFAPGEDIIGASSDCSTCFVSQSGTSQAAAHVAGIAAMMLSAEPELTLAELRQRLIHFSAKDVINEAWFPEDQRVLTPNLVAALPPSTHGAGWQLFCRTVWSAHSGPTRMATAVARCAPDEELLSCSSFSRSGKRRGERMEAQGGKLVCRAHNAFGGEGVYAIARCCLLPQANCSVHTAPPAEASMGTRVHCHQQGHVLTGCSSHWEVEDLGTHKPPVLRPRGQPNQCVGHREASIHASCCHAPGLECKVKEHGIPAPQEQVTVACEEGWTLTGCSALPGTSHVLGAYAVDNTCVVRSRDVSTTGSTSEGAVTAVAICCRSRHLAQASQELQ
Chain of human PCSK9 / human LDLR EGFa domain interaction (Q8NBP7 31-152 partner): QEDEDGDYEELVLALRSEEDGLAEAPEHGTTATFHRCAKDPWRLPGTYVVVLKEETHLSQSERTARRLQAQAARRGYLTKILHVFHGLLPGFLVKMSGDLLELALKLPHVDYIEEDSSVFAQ
Chain of PCSK9 (Q8NBP7 153-692): as the sequence (Q8NBP7 153-692) above

| Structure (SMILES) | IC50 [1] | IC50 (PCSK9) |
| --- | --- | --- |
| CC(=O)N[C@H]1CCCNC(=O)COc2ccc(cc2)C[C@@H](C(N)=O)NC(=O)[C@]2(C)CCCN2C(=O)[C@H](Cc2ccc(O)cc2)NC(=O)[C@H](Cc2cnc[nH]2)NC(=O)[C@H](CC(=O)O)NC(=O)[C@H](Cc2c[nH]c3ccc(F)cc23)NC(=O)[C@H](Cc2c[nH]c3ccc(F)cc23)NC(=O)CNC(=O)[C@H](C)NC1=O [Compound 364] (Ac-[Orn]AG[Trp(5-F)][Trp(5-F)]DHY[αMeP]Y-NH2; linker 1-10 via X2) | 100 to 1000 nM | 100 to 1000 nM |
| COc1ccc(C[C@@H]2NC(=O)[C@H](Cc3cnc[nH]3)NC(=O)[C@H](CC(=O)O)NC(=O)[C@H](Cc3c[nH]c4cc(F)ccc34)NC(=O)[C@H](Cc3c[nH]c4ccc(F)cc34)NC(=O)[C@@H](C)NC(=O)[C@H](CCCCN)NC(=O)CCCc3cn(nn3)-c3ccc(cc3)C[C@@H](C(N)=O)NC(=O)[C@]3(C)CCCN3C2=O)cc1 [Compound 369] | 0.1 to 100 nM | 100 to 1000 nM |
| C[C@@H]1NC(=O)CCCCC(=O)NCc2ccc(cc2)C[C@@H](C(N)=O)NC(=O)[C@]2(C)CCCN2C(=O)[C@H](Cc2ccc(O)cc2)NC(=O)[C@H](Cc2cnc[nH]2)NC(=O)[C@H](CC(=O)O)NC(=O)[C@H](Cc2c[nH]c3ccc(F)cc23)NC(=O)[C@H](Cc2c[nH]c3ccc(F)cc23)NC(=O)CNC1=O [Compound 370] (AG[Trp(5-F)][Trp(5-F)]DHY[αMeP][Phe(4-CH2NH2)]-NH2; linker N-9 via Adipoyl) | 0.1 to 100 nM | 100 to 1000 nM |
| C[C@@]12CCCN1C(=O)[C@H](Cc1ccc(O)cc1)NC(=O)[C@H](Cc1cnc[nH]1)NC(=O)[C@H](CC(=O)O)NC(=O)[C@H](Cc1c[nH]c3ccc(F)cc13)NC(=O)[C@H](Cc1c[nH]c3ccc(F)cc13)NC(=O)CNC(=O)[C@H](C1(O)CC1)NC(=O)CCSCc1cccc(c1)CSC[C@@H](C(N)=O)NC2=O [Compound 372] ([Mpa][X27]G[Trp(5-F)][Trp(5-F)]DHY[αMeP]C-NH2; linker 1-10 via mXylylene) | 100 to 1000 nM | 100 to 1000 nM |

Now from value to compound:

| IC50 [1] | IC50 (PCSK9) | Structure (SMILES) |
| --- | --- | --- |
| 0.1 to 100 nM | 100 to 1000 nM | CS[C@H]1C[C@H]2C(=O)N[C@H](C(N)=O)CSCc3cccc(c3)CSCCC(=O)N[C@@H](CCCCN)C(=O)NCC(=O)N[C@@H](Cc3c[nH]c4ccc(F)cc34)C(=O)N[C@@H](Cc3c[nH]c4ccc(F)cc34)C(=O)N[C@@H](CC(=O)O)C(=O)N[C@@H](Cc3cnc[nH]3)C(=O)N[C@@H](Cc3ccc(O)cc3)C(=O)N2C1 [Compound 363] ([Mpa]KG[Trp(5-F)][Trp(5-F)]DHY[X9]C-NH2; linker 1-10 via mXylylene) |
| 0.1 to 100 nM | 0.11 to 100 nM | COc1ccc(C[C@@H]2NC(=O)[C@H](Cc3cnc[nH]3)NC(=O)[C@H](CC(=O)O)NC(=O)[C@H](Cc3c[nH]c4ccc(F)cc34)NC(=O)[C@H](Cc3c[nH]c4ccc(F)cc34)NC(=O)[C@@H](C)NC(=O)[C@H](CCCCN)NC(=O)[C@@H](NC(C)=O)CCc3cn(nn3)-c3ccc(cc3)C[C@@H](C(N)=O)NC(=O)[C@]3(C)CCCN3C2=O)cc1 [Compound 371] |
| 0.1 to 100 nM | 100 to 1000 nM | CC(C)C[C@H]1NC(=O)[C@H](CCCCN)NC(=O)CCSCc2cccc(c2)CSC[C@@H](C(N)=O)NC(=O)[C@]2(C)CCCN2C(=O)[C@H](Cc2ccc(O)cc2)NC(=O)[C@H](Cc2cnc[nH]2)NC(=O)[C@H](CC(=O)O)NC(=O)[C@H](Cc2c[nH]c3ccc(F)cc23)NC(=O)[C@H](Cc2c[nH]c3ccc(F)cc23)NC1=O [Compound 373] ([Mpa]K[dL][Trp(5-F)][Trp(5-F)]DHY[αMeP]C-NH2; linker 1-10 via mXylylene) |
| 0.1 to 100 nM | 100 to 1000 nM | CC(C)(O)[C@@H]1NC(=O)CCSCc2cccc(c2)CSC[C@@H](C(N)=O)NC(=O)[C@]2(C)CCCN2C(=O)[C@H](Cc2ccc(O)cc2)NC(=O)[C@H](Cc2cnc[nH]2)NC(=O)[C@H](CC(=O)O)NC(=O)[C@H](Cc2c[nH]c3ccc(F)cc23)NC(=O)[C@H](Cc2c[nH]c3ccc(F)cc23)NC(=O)CNC1=O [Compound 374] ([Mpa][Val(3-OH)]G[Trp(5-F)][Trp(5-F)]DHY[αMeP]C-NH2; linker 1-10 via mXylylene) |
